Results reported in patent US20100086931A1, “METHOD FOR ASSAYING ACTION OF ANTITUMOR AGENT USING DECREASE IN GENE EXPRESSION LEVEL AS INDEX” (Eisai R&D Management Co., Ltd., priority 2007, published 2010).

Columns and labels:
[1] = test system: peripheral blood mononuclear cells (PBMC); assay: qPCR (TaqMan) measurement of mRNA expression in PBMC treated with compound A; type: cell-based, human; settings: untreated cells = 1, corrected by 18S rRNA
Excerpt: Since it is not easy to obtain a cancer tissue clinically, the measurement of the marker in hemocytes readily obtainable in peripheral blood would be more useful. Specifically peripheral blood was taken from three normal individuals (volunteers) and peripheral blood mononuclear cells were purified and treated with compound A, followed by measurement of change in expression of the gene (mRNA) by qPCR.
RNA samples were first prepared in accordance with the steps described in Example 2 (1) and (2).
Subsequently RNA was prepared to 30 ng/μl and cDNA was synthesized by using TaqMan Reverse Transcription Reagents (Applied Biosystems). The expression level of SLC25A19, TRAPPC4, GTF2H1, Id1, EDN1, ZCCHC6, HNRPA2B1, and HSPA9B was amplified with TaqMan Gene Expression Assays (catalog numbers below) (Applied Biosystems) as a probe by using TaqMan Universal PCR Master Mix (Applied Biosystems).
Reagents were prepared in accordance with the protocol, and measurement was carried out with ABI7900 (Applied Biosystems). Measured values were corrected by using the expression level of 18S rRNA (Hs99999901_s1, Applied Biosystems) as an internal control. The expression level of each gene was calculated with the expression level in the cells untreated with compound A as 1. […] In Table 3, for each gene evaluated, abbreviated name (Gene Symbol), accession number (Accession), alias name (Synonym), gene name (Gene Name), and the expression level upon treatment with varied concentration of E7107 (E7107 (nM)) were respectively shown.

[2] = test system: peripheral blood mononuclear cells (PBMC); assay: as above; type: cell-based, human; settings: 30 nM; untreated cells = 1; corrected by 18S rRNA

SMILES: CCC(O)C(C)C1OC1CC(C)(O)/C=C/C=C(\C)C1OC(=O)CC(O)CCC(C)(O)C(OC(=O)N2CCN(C3CCCCCC3)CC2)/C=C/C1C (stereo not drawn) [E7107, (8E,12E,14E)-7-((4-Cycloheptylpiperazin-1-yl)carbonyl)oxy-3,6,16,21-tetrahydroxy-6,10,12,16,20-pentamethyl-18,19-epoxytricosa-8,12,14-trien-11-olide]
- EDN1 mRNA expression level (qPCR) ([1]; 3 nM): 0.45
- GTF2H1 mRNA expression level (qPCR) ([1]; 3 nM): 0.22
- HNRPA2B1 mRNA expression level (qPCR) ([1]; 3 nM): 0.48
- HSPA9 mRNA expression level (qPCR) ([1]; 3 nM): 0.39
- ID1 mRNA expression level (qPCR) ([1]; 3 nM): 0.5
- SLC25A19 mRNA expression level (qPCR) ([1]; 3 nM): 0.11
- TRAPPC4 mRNA expression level (qPCR) ([1]; 3 nM): 0.12
- ZCCHC8 mRNA expression level (qPCR) ([1]; 3 nM): 0.49
- EDN1 mRNA expression level (qPCR) ([1]; 10 nM): 0.2
- GTF2H1 mRNA expression level (qPCR) ([1]; 10 nM): 0.07
- HNRPA2B1 mRNA expression level (qPCR) ([1]; 10 nM): 0.29
- HSPA9 mRNA expression level (qPCR) ([1]; 10 nM): 0.26
- ID1 mRNA expression level (qPCR) ([1]; 10 nM): 0.15
- SLC25A19 mRNA expression level (qPCR) ([1]; 10 nM): 0.02
- TRAPPC4 mRNA expression level (qPCR) ([1]; 10 nM): 0.02
- ZCCHC8 mRNA expression level (qPCR) ([1]; 10 nM): 0.19
- EDN1 mRNA expression level (qPCR) ([1]; 30 nM): 0.11
- GTF2H1 mRNA expression level (qPCR) ([1]; 30 nM): 0.05
- HNRPA2B1 mRNA expression level (qPCR) ([1]; 30 nM): 0.24
- HSPA9 mRNA expression level (qPCR) ([1]; 30 nM): 0.17
- ID1 mRNA expression level (qPCR) ([1]; 30 nM): 0.09
- SLC25A19 mRNA expression level (qPCR) ([1]; 30 nM): 0.01
- TRAPPC4 mRNA expression level (qPCR) ([1]; 30 nM): 0.01
- ZCCHC8 mRNA expression level (qPCR) [2]: 0.13
